In patent US20030228566A1, “Method of and apparatus for screening for drug candidates” (BioTechPlex Corporation, priority 2002, published 2003):

Tested on: normal human bronchial epithelial cells (NHBE)
Assay: Cumulative dose kinetic responses of intracellular Ca++, Cl- and cell membrane potential (simultaneous three-fluorophore photon counting: Fluo-3, di-MEQ, RH421)
Format: cell-based
Settings: for intracellular Ca++ response / intracellular Cl- response / membrane potential response: cumulative dosing
Experimental: Normal human bronchial/tracheal epithelial cells (NHBE, Clonetics) were cultured in T-25 cm^2 flasks at 37° C., 5% CO2 using Bronchial/Tracheal Epithelial Cell Growth Medium containing Retinoic Acid (BEGM, w/RA, Clonetics). When the NHBE cells in the T-25 flasks reached 60%-80% confluency, the cells were passaged using a seeding density of 3500 cells/cm^2. A portion of the cells was passaged in T-25 flasks again while the remaining cells were seeded on UV-exposed Vitrogen (pH balanced 1:1 BEGM to Vitrogen) coated 4-well cover glass chambers (LabTek II). NHBE cells normally attached to the collagen-coated cover glass chamber within 24 hrs. Prior to these cells reaching 60% confluency, they were used for all the experiments described below. Cells used in all the experiments were either 2nd or 3rd passage cells maintained in Bronchial/Tracheal Epithelial Cell Growth Medium with Retinoic Acid (BEGM, w/RA, Clonetics).
The following procedures for loading the cells with fluorophore were employed. Balanced Hank's (BH) solution without phenol red was used as the medium for all the fluorophore preparations and cell washings unless stated otherwise. Fluo-3 (a Ca^++ indicator), di-MEQ (a Cl^− indicator) and RH421 (a cell membrane potential indicator) were loaded into cells sequentially at room temperature. Cells were first incubated with 8 μM Fluo-3 solution for 60 minutes, followed by incubating with 50 μM di-MEQ for 5 minutes and then finally with 10 μM RH421 for 5 minutes. Extraneous dyes were washed with BH solution between each fluorophore loading procedure. The cells were allowed to stabilize in BEGM for a minimum of 15 minutes at room temperature prior to the beginning of each experiment.
Experiments were performed at room temperature. All tested agents were prepared in Balanced Hank's Solution. One of the wells of the cover glass chamber was placed on the stage of the inverted microscope and the cells loaded with the fluorophores were visually focused with the violet, green and orange emitted light from the cells approximately in the same focal plane. At a sampling frequency of 100 Hz, cells with the following photon counts were chosen for the study: 20 to 50 counts per channel (cpc) for Ca^++ fluorescence, 70 to 200 cpc for Cl^− fluorescence, and 20 to 50 cpc for cell membrane potential fluorescence. After establishing a 2 minute baseline, increasing doses of the agent of interest were added topically to the wells 2 minutes apart. At the end of each experiment, a toxic dose of the agent of interest was added to the sample to either shrink or swell the cells beyond their normal cell volume regulatory range. This caused the fluorescence signals of each of these fluorophores to reach either maximum or minimum values. […] Background fluorescence was recorded using a cell free area of the same well. If the signal to background ratio was not higher than a factor of 10, the experiments were also discarded.

[1] = 25 μM to 500 μM cumulative dosing, general statement
[2] = Glibenclamide concentrations below 500 μM

Row | Compound | [Cl-]i (MEQ fluorescence inversely proportional to [Cl-]i), overall effect [1] | cell membrane polarization, overall effect [1] | intracellular Ca++ response [2] | intracellular Cl- response [2] | membrane potential response [2] | intracellular Ca++ response (concentration 500 μM) | intracellular Cl- response (concentration 500 μM) | membrane potential response (concentration 500 μM) | intracellular Ca++ response (concentration 0.1 mM) | intracellular Cl- response (concentration 0.1 mM) | membrane potential response (concentration 0.1 mM) | intracellular Ca++ response (concentration 1 mM) | intracellular Cl- response (concentration 1 mM) | membrane potential response (concentration 1 mM)
1 | COc1ccc(Cl)cc1C(=O)NCCc1ccc(S(=O)(=O)NC(=O)NC2CCCCC2)cc1 [Glibenclamide] | increased | hyperpolarized | little affected | declines as Glibenclamide concentration increases | little affected | rapid increase | simultaneous drop | simultaneous increase | – | – | – | – | – | –
2 | O=c1ccn([C@@H]2O[C@H](COP(=O)(O)OP(=O)(O)OP(=O)(O)O)[C@@H](O)[C@H]2O)c(=O)[nH]1 [UTP, uridine triphosphate] | – | – | – | – | – | – | – | – | rapid increase | essentially no changes | essentially no changes | rapid increase | essentially no changes | essentially no changes
